Data as given in US6214846A, “Substituted 3-(benzylamino)piperidine derivatives and their use as therapeutic agents” (Merck Sharp & Dohme Limited, priority 1997, dated 2001).
Structures can show the parent of a compound that is named as a salt.

Target: human NK1 receptor (Homo sapiens, UniProt P25103)
Assay: IC50 at the human NK1 receptor (methods of pages 36 to 39 of WO 93/01165)
Type: binding
Details: test method of WO 93/01165
Description: The exemplified compounds of this invention were tested by the methods set out at pages 36 to 39 of International Patent Specification No. WO 93/01165.

Chain of human NK1 receptor (P25103 whole entry): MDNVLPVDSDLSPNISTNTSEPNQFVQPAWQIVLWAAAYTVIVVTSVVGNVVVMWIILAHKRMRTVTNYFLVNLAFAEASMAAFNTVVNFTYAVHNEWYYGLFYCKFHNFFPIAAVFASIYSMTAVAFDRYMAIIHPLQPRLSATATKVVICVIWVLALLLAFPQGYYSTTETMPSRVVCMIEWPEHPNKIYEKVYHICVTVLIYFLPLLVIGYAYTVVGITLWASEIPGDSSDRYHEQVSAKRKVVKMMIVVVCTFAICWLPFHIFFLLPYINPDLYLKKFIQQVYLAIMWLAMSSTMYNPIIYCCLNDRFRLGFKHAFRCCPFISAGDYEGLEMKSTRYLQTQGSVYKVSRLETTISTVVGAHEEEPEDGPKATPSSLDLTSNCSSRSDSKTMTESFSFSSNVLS

For Fc1ccc([C@@H]2NCCC[C@@H]2NCc2cc(OC(F)(F)F)ccc2OC2CC2)cc1 (relative stereo) [Example 3, (±)-(2R3R,2S3S)-N-{[2-Cyclopropoxy-5-(trifluoromethoxy)phenyl]methyl}-2-(4-fluorophenyl)piperidin-3-amine Dihydrochloride], the IC50 was 0.2 nM.

For FC(F)(F)Oc1ccc(OC2CC2)c(CN[C@H]2CCCN[C@H]2c2ccccc2)c1 (relative stereo) [Example 1, (±)-(2R3R,2S3S)-N-{[2-Cyclopropoxy-5-(trifluoromethoxy)phenyl]methyl}-2-phenylpiperidin-3-amine Dihydrochloride], the IC50 was 0.17 nM.
